# According to PubChem BioAssay AID1845204 (Molecular Pharmacology Branch, DTP, NCI, 2023):
# Tested on: HSSY-II tumor spheroid viability
# Assay: Anticancer human tumor HSSY-II cell line growth inhibition;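 note: spheroids exposed to compounds for seven days before reading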;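 for viability, T/C: percent of DMSO vehicle control viability so 100% = untreated level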
# Settings: spheroids with HUVEC and MSC; for IC50: curve of first compound; for viability, T/C: stronger effect = lower value
# From the text: Multicellular complex tumor spheroid response to DNA repair inhibitors in combination with DNA-damaging drugs
# This study explores the anticancer activities of DNA-damaging drugs and inhibitors of DNA damage repair, both as single agents and in combinations. Complex tumor spheroids comprised of malignant cells, endothelial cells and mesenchymal stem cells served as an in vitro model for human solid tumors. This model system incorporates physiologically relevant features and patient-derived or established malignant cell lines with clinically relevant genetic alterations from many tumor types. Twenty-six patient-derived or established malignant cell lines were evaluated representing sarcoma, melanoma, small cell lung cancer (SCLC), non-small cell lung cancer (NSCLC), as well as bladder, ovarian and pancreatic cancers. The concentration ranges selected for each drug and investigational agent were based upon clinically achievable concentrations if the clinical Cmax of the agent was known.
# Compounds. The drugs and compounds olaparib (NSC753686), talazoparib (NSC767125), berzosertib (NSC777718), elimusertib (NSC800525), nedisertib (NSC802822), VX-984 (NSC792969), AZD-1390 (NSC803789), temozolomide (NSC362856), topotecan (NSC609699), trabectedin (NSC813783), staurosporine (NSC755774), and gemcitabine (NSC613327) were obtained from the National Cancer Institute (NCI) Developmental Therapeutics Program Chemical Repository. The FDA-approved anticancer drug set is available from the Developmental Therapeutics Program at https://dtp.cancer.gov/organization/dscb/obtaining/available_plates.htm. […] The stock solutions were prepared in dimethyl sulfoxide (DMSO, Sigma-Aldrich, St. Louis, MO, cat. D2650) at 400-fold the tested concentration and stored at -70 degrees C. Prior to their use, the stock solutions were diluted in fresh medium and the final DMSO concentration in the assay was 0.25% (v/v). All drugs and investigational agents were tested over a range starting from a high concentration at or near the clinical Cmax and decreasing in half-log increments. If the clinical Cmax for an agent had not been determined, the highest concentration tested was 10 microM.
# Cell Lines. The patient-derived cancer cell (PDC) lines: 156681-154-R-J1-PDC, 283228-195-R-J1-PDC, 287954-098-R-J1-PDC, 292921-168-R-J2-PDC, 349418-098-R-PDC, 425362-245-T-J1-PDC, 556581-035-R-J1-PDC, and BL0293-F563-PDC were received from the NCI Patient-Derived Models Repository (PDMR, https://pdmr.cancer.gov). The established cell lines HS-SY-2 (RRID:CVCL_8719), MPNST, and SYO-1 (RRID:CVCL_7146) were obtained from the Sloan Kettering Institute. The alveolar soft parts sarcoma cell line ASPS-1 (RRID:CVCL_S738) was established at the NCI and grown from internal seed stocks. The following established cell lines were purchased from the American Type Culture Collection (ATCC, Manassas, VA): G-401 (ATCC, cat. CRL-1441, RRID:CVCL_0270), SW982 (ATCC, cat. HTB-93, RRID:CVCL_1734), VA-ES-BJ (ATCC, cat. CRL-2138, RRID:CVCL_1785), NCI-H719 (ATCC, cat. CRL-5837, RRID:CVCL_1582), NCI-H196 (ATCC, cat. CRL-5823, RRID:CVCL_1509), NCI-H841 (ATCC, cat. CRL-5845, RRID:CVCL_1595), NCI-H1618 (ATCC, cat. CRL-5879, RRID:CVCL_1480), NCI-H1876 (ATCC, cat. CRL-5902, RRID:CVCL_1503), DMS 114 (ATCC, cat. CRL-2066; RRID:CVCL_1174), NCI-H211 (ATCC, cat. CRL-5824; RRID:CVCL_1529), and SW 1271 (ATCC, cat. CRL-2177, RRID:CVCL_1716). The small cell lung cancer cell line COR-L88 was purchased from Sigma-Aldrich (cat. 92031917-1VL, RRID:CVCL_1141). The non-small cell lung cancer cell lines NCI-H226 (RRID:CVCL_1544) and NCI-H322M (RRID:CVCL_1557) were established at the NCI and grown from internal seed stocks. Pooled donor human umbilical vein endothelial cells (HUVEC, Lonza, cat. CC-2519) and human mesenchymal stem cells (hMSC, Lonza, cat. PT-2501) were purchased from Lonza (Walkersville, MD).
# Cell Culture. All cells were maintained in an incubator at 37 degrees C and 5% CO2 with 95% humidity. […]
compound,measurement,setting,value
Cc1cc(C)c(CNC(=O)c2cc(-c3ccc(CN4CCOCC4)cc3)cc3c2cnn3C2CCCC2)c(=O)[nH]1 + CC[C@@]1(O)C(=O)OCc2c1cc1n(c2=O)Cc2cc3c(CN(C)C)c(O)ccc3nc2-1,IC50,second compound 0.003 µM,> 10000 nM
same,IC50,second compound 0.00949 µM,< 31.6 nM
same,IC50,second compound 0.03 µM,< 31.6 nM
same,IC50,second compound 0.0949 µM,< 31.6 nM
same,IC50,second compound 0.3 µM,< 31.6 nM
same,"viability, T/C","second compound 0.003 µM, first compound 0.0316 µM",79.2%
same,"viability, T/C","second compound 0.003 µM, first compound 0.1 µM",81%
same,"viability, T/C","second compound 0.003 µM, first compound 0.316 µM",81.3%
same,"viability, T/C","second compound 0.003 µM, first compound 1 µM",81.9%
same,"viability, T/C","second compound 0.003 µM, first compound 3.16 µM",79.1%
same,"viability, T/C","second compound 0.003 µM, first compound 10 µM",64%
same,"viability, T/C","second compound 0.00949 µM, first compound 0.0316 µM",39.4%
same,"viability, T/C","second compound 0.00949 µM, first compound 0.1 µM",40.1%
same,"viability, T/C","second compound 0.00949 µM, first compound 0.316 µM",42.9%
same,"viability, T/C","second compound 0.00949 µM, first compound 1 µM",47.4%
same,"viability, T/C","second compound 0.00949 µM, first compound 3.16 µM",38%
same,"viability, T/C","second compound 0.00949 µM, first compound 10 µM",49.7%
same,"viability, T/C","second compound 0.03 µM, first compound 0.0316 µM",6.06%
same,"viability, T/C","second compound 0.03 µM, first compound 0.1 µM",7.28%
same,"viability, T/C","second compound 0.03 µM, first compound 0.316 µM",7.77%
same,"viability, T/C","second compound 0.03 µM, first compound 1 µM",9.15%
same,"viability, T/C","second compound 0.03 µM, first compound 3.16 µM",9.78%
same,"viability, T/C","second compound 0.03 µM, first compound 10 µM",11.9%
same,"viability, T/C","second compound 0.0949 µM, first compound 0.0316 µM",6.68%
same,"viability, T/C","second compound 0.0949 µM, first compound 0.1 µM",11.9%
same,"viability, T/C","second compound 0.0949 µM, first compound 0.316 µM",7.28%
same,"viability, T/C","second compound 0.0949 µM, first compound 1 µM",7.31%
same,"viability, T/C","second compound 0.0949 µM, first compound 3.16 µM",8.02%
same,"viability, T/C","second compound 0.0949 µM, first compound 10 µM",9.19%
same,"viability, T/C","second compound 0.3 µM, first compound 0.0316 µM",4.56%
same,"viability, T/C","second compound 0.3 µM, first compound 0.1 µM",4.19%
same,"viability, T/C","second compound 0.3 µM, first compound 0.316 µM",4.75%
same,"viability, T/C","second compound 0.3 µM, first compound 1 µM",5.11%
same,"viability, T/C","second compound 0.3 µM, first compound 3.16 µM",6.37%
same,"viability, T/C","second compound 0.3 µM, first compound 10 µM",7.28%
